# Source: article PMC3427316 (PLoS ONE, 2012)
# Assays:
# [1] = target: NA of D0 isolate A/Paris/7976/2010 (223I 100%, 275H 100%) (Influenza A virus, UniProt V9TJZ0); type: biochemical, influenza A(H1N1)pdm09 virus; settings: read-out: Ki +/− SD
# H1N1pdm09 virus = settings: human, in vivo
SMILES,Ki [1] [nM],impact on viral shedding (H1N1pdm09 virus),symptoms (H1N1pdm09 virus)
"CCC(CC)O[C@@H]1C=C(C(=O)O)C[C@H](N)[C@H]1NC(C)=O [OC, oseltamivir carboxylate]",0.28,,
"CC(=O)N[C@H]1[C@H]([C@H](O)[C@H](O)CO)OC(C(=O)O)=C[C@@H]1N=C(N)N [ZAN, zanamivir]",,no impact,did not improve
